From the supplement of paper PMC10307832

What was measured:
Test in all cases: relative viability (nuclei count vs DMSO), 5 days (fraction); higher = more cells survive
Motesanib + Navitoclax = compound: CC1(C)CNc2cc(NC(=O)c3cccnc3NCc3ccncc3)ccc21 [Motesanib] + CC1(C)CCC(c2ccc(Cl)cc2)=C(CN2CCN(c3ccc(C(=O)NS(=O)(=O)c4ccc(N[C@H](CCN5CCOCC5)CSc5ccccc5)c(S(=O)(=O)C(F)(F)F)c4)cc3)CC2)C1 [Navitoclax] (partner 0.5 µM)
In short: (§1)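 For relative viability, nuclei counts in treated wells were divided by those in vehicle wells. Lung cancer cell lines had been pin-tool dosed in 1536-well plates the day after seeding and cultured for 5 days, then fixed and stained in one step (final 0.05% Triton X-100, 1% formaldehyde, 1 ug/ml Hoechst) and imaged at 4×. Doses were one drug alone or a fixed anchor-drug dose plus five library-drug doses (not always all listed) in √10 steps, and values are duplicate-plate medians.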

Motesanib + Foretinib = compound: CC1(C)CNc2cc(NC(=O)c3cccnc3NCc3ccncc3)ccc21 [Motesanib] + COc1cc2c(Oc3ccc(NC(=O)C4(C(=O)Nc5ccc(F)cc5)CC4)cc3F)ccnc2cc1OCCCN1CCOCC1 [Foretinib] (partner 0.25 µM)
In short: as §1

[1] = compound: C[C@@]1(C(=O)Nc2ccc(F)nc2)CCCN1c1nc(Nc2cc(C3CC3)n[nH]2)c2cccn2n1
In short: (§2)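 A plate was accepted only when its control CV was below 25% and the cells had doubled at least once. Viability is defined from nuclear counts as treated wells divided by vehicle wells, with the median taken across plates. That median covers lung cancer cell lines grown in 1536-well plates, dosed by pinning at five √10-spaced library-drug concentrations, and counted in MetaXpress from 4× Hoechst images after 5 days.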

Motesanib = compound: CC1(C)CNc2cc(NC(=O)c3cccnc3NCc3ccncc3)ccc21 [Motesanib]
In short: as §2

Cell Line | relative viability (Motesanib + Navitoclax; first compound 0.01 µM) | relative viability (Motesanib + Navitoclax; first compound 0.03162 µM) | relative viability (Motesanib + Navitoclax; first compound 0.1 µM) | relative viability (Motesanib + Navitoclax; first compound 0.3162 µM) | relative viability (Motesanib + Navitoclax; first compound 1 µM) | relative viability (Motesanib + Foretinib; first compound 0.01 µM) | relative viability (Motesanib + Foretinib; first compound 0.03162 µM) | relative viability (Motesanib + Foretinib; first compound 0.1 µM) | relative viability (Motesanib + Foretinib; first compound 0.3162 µM) | relative viability (Motesanib + Foretinib; first compound 1 µM) | relative viability ([1]; 0.04 µM) | relative viability ([1]; 0.1265 µM) | relative viability ([1]; 0.4 µM) | relative viability ([1]; 1.265 µM) | relative viability (Motesanib; 0.01 µM) | relative viability (Motesanib; 0.03162 µM) | relative viability (Motesanib; 0.1 µM) | relative viability (Motesanib; 0.3162 µM) | relative viability (Motesanib; 1 µM)
NCI-H1915 | 0.782 | 0.747 | 0.824 | 0.794 | 0.784 | 1.07 | 1.06 | 1.09 | 1.14 | 1.06 | 1 | 1.06 | 0.982 | 0.982 | 0.978 | 0.988 | 0.908 | 1.05 | 1.04
NCI-H596 | 0.962 | 0.893 | 0.9 | 0.879 | 1.1 | 0.817 | 0.818 | 0.98 | 0.656 | 0.806 | 1.02 | 0.846 | 0.902 | 0.939 | 1.2 | 0.921 | 0.928 | 0.908 | 0.964
NCI-H322M | 1.19 | 1.32 | 1.33 | 1.2 | 1.23 | 1.09 | 0.998 | 0.979 | 0.946 | 1.06 | 0.853 | 0.602 | 0.644 | 0.728 | 1.04 | 0.993 | 0.988 | 0.946 | 0.954
NCI-H1299 | 1.06 | 1.04 | 1.06 | 1.11 | 1.07 | 1.06 | 1.11 | 1.11 | 1.16 | 1.12 | 1.05 | 0.954 | 1.02 | 1.04 | 1.01 | 0.999 | 1.04 | 1.02 | 1.05
NCI-H2228 | 1.13 | 0.913 | 0.632 | 1.04 | 1.12 | 0.995 | 0.937 | 0.902 | 1.02 | 0.796 | 0.857 | 0.781 | 0.743 | 0.652 | 1.1 | 1.03 | 0.971 | 1.11 | 1.06
IA-LM | 0.803 | 0.827 | 0.737 | 0.673 | 0.631 | 1.12 | 1.1 | 1.23 | 1.07 | 1.19 | 1.05 | 1 | 0.863 | 0.861 | 0.927 | 1.03 | 0.957 | 1.04 | 0.941
NCI-H647 | 1.26 | 1.49 | 1.28 | 1.19 | 1.18 | 1.21 | 1.14 | 1.21 | 1.25 | 1.14 | 1.05 | 0.869 | 0.848 | 0.86 | 0.827 | 1 | 0.93 | 1.06 | 0.988
SK-MES-1 | 1.13 | 1.15 | 1.23 | 1.24 | 1.21 | 0.949 | 0.963 | 0.982 | 0.945 | 0.86 | 1.03 | 0.955 | 0.796 | 0.921 | 1.01 | 1.02 | 1.06 | 1.01 | 1.02
NCI-H2170 | 0.574 | 0.773 | 0.545 | 0.676 | 0.537 | 1.01 | 1.03 | 0.955 | 0.952 | 0.982 | 0.945 | 0.994 | 0.958 | 0.976 | 0.928 | 0.948 | 0.939 | 1.01 | 1.02
NCI-H2085 | 1.2 | 1.29 | 1.21 | 1.13 | 1.12 | 0.896 | 1.22 | 0.973 | 1.07 | 1.03 | 1.07 | 0.952 | 0.942 | 0.955 | 1.02 | 0.993 | 0.981 | 1.06 | 1.01
SW 1573 | 0.902 | 0.994 | 0.824 | 1.1 | 1.06 | 0.772 | 0.905 | 0.93 | 0.936 | 1.08 | 0.824 | 0.762 | 0.697 | 0.672 | 0.998 | 0.894 | 0.977 | 1.05 | 1.15
NCI-H727 | 0.519 | 0.349 | 0.321 | 0.52 | 0.446 | 0.707 | 0.98 | 0.854 | 1.09 | 0.883 | 0.677 | 0.38 | 0.36 | 0.414 | 0.83 | 1 | 0.9 | 0.974 | 0.849
NCI-H441 | 0.706 | 0.729 | 0.627 | 0.641 | 0.796 | 0.889 | 0.922 | 1.13 | 1 | 1.03 | 0.719 | 0.549 | 0.664 | 0.703 | 1.02 | 1.06 | 0.981 | 1.08 | 1.16
LOU-NH91 | 0.774 | 0.638 | 0.741 | 0.703 | 0.769 | 0.97 | 0.929 | 0.91 | 0.948 | 1.02 | 0.94 | 0.94 | 0.894 | 0.841 | 0.94 | 0.982 | 1.12 | 0.993 | 0.995
